Data reported in patent US10227348B2, “Use of 10H-benzo[g]pteridine-2,4-dione derivatives” (TriOptoTec GmbH, priority 2011, dated 2019).

Experiments:
[1] = test system: Escherichia coli (ATCC number: 25922); assay: Phototoxicity test (photodynamic inactivation, CFU/ml by Miles and Misra); format: cell-based; conditions: E. coli; irradiation at 10.5 J/cm^2 (50 mW/cm^2, 210 sec, 390-500 nm); incubation 10 min or 30 min; CFU/ml after 24 h
Method: (§1) A sample of the bacterial strain Staphylococcus aureus (ATCC number: 25923) or Escherichia coli (ATCC number: 25922) was taken from a cryogenically frozen culture, isolated on Müller-Hinton agar plates and cultivated under aerobic conditions at 37° C. in an overnight culture. Thereafter, 5 ml of Müller-Hinton liquid medium were inoculated with a smear of the bacterial culture (single colony) and incubated at 37° C. overnight. The bacterial suspension thus obtained was centrifuged at 2500 rpm for 10 min and the bacterial pellet obtained was resuspended in 5 ml of sterile PBS. The optical density of the bacterial suspensions for the phototoxicity tests was OD600nm=0.6, which corresponds to a bacteria count of ˜[…] bacteria per ml. The biochemical analysis and resistance determination of the bacteria were conducted with the VITEK2 system according to the M100-S14 guidelines from the NCCLS (2004).
(§2) 200 μl of a bacterial suspension (bacterial density: 10^8-10^12/ml) were incubated with 200 μl of each of various concentrations of the photosensitizers to be tested at room temperature for 10 min or 30 min. Thereafter, the bacteria were washed twice with distilled water and resuspended in 200 μl of distilled water, and the entire volume was transferred to a 96-well microtiter plate and then irradiated. The photosensitizers used were dissolved in distilled water and various dilution series were prepared (0 μM, 1 μM, 10 μM, 100 μM).
(§3) For sensitization, the Omnicure Series 2000 lamp (Photonics Solutions Inc., Edinburgh, UK) was used, which emits light from a range from 390 nm to 500 nm and has emission maxima Emax at 405 nm and 436 nm. The power applied in each case was 50 mW/cm^2.
(§4) Irradiated and unirradiated samples were used as controls. Likewise run were bacterial suspensions incubated only with photosensitizer (dark control).
(§5) The determination of the colony-forming units (CFU) per ml was conducted by the method published by Miles and Misra (Miles, A A; Misra, S S, Irwin, J O (1938 November). “The estimation of the bactericidal power of the blood.”. The Journal of hygiene 38 (6): 732-49). For this purpose, serial dilutions from 10^−2 to 10^−9 of the corresponding bacterial suspension were prepared. 3×20 μl of each of the corresponding bacterial dilutions were then dripped onto Müller-Hinton plates and incubated at 37° C. for 24 h. Thereafter, the number of surviving colony-forming units (CFU) was determined. Each of the experiments was repeated three times.
(§6) The effectiveness of phototoxicity with respect to bacteria after irradiation was defined according to the following guidelines for hand hygiene in the health sector (Boyce, J. M., and D. Pittet. 2002. Guideline for Hand Hygiene in Health-Care Settings: recommendations of the Healthcare Infection Control Practices Advisory Committee and the HICPAC/SHEA/APIC/IDSA Hand Hygiene Task Force. Infect Control Hosp Epidemiol 23: p. 3-40): • reduction in the CFU/ml by 1 log10 stage≙90% effectiveness • reduction in the CFU/ml by 3 log10 stages≙99.9% effectiveness • reduction in the CFU/ml by 5 log10 stages≙99.999% effectiveness
(§7) For effective inactivation, the decrease of ≥3 log10 stages can therefore be adopted, and S. aureus and E. coli were chosen as examples of representatives from the group of the Gram-positive and Gram-negative bacteria (see Boyce J. M and D. Pittet 2009).

[2] = test system: Staphylococcus aureus (ATCC number: 25923); assay: as above; format: cell-based; conditions: S. aureus; irradiation at 10.5 J/cm^2 (50 mW/cm^2, 210 sec, 390-500 nm); incubation 10 min or 30 min; CFU/ml after 24 h
Method: as §1, §2, §3, §4, §5, §6, §7

SMILES | Required concentration to achieve a reduction by ≥3 log10 stages (decrease by 99.9%) [1] | Required concentration to achieve a reduction by ≥3 log10 stages (decrease by 99.9%) [2]
COCCn1c2nc(=O)n(CCNC(=N)N)c(=O)c-2nc2cc(C)c(C)cc21 [FL-04] | >100^(*^) μM | 50 μM
Cc1cc2nc3c(=O)[nH]c(=O)nc-3n(CCOCCOCCN)c2cc1C [FL-05] | >100^(*^) μM | 100 μM
Cc1cc2nc3c(=O)[nH]c(=O)nc-3n(CCN)c2cc1C [FL-01] | 10 μM | 10 μM
COCCn1c2nc(=O)n(CCN)c(=O)c-2nc2cc(C)c(C)cc21 [FL-03] | >100^(*^) μM | 10 μM
